Experimental data as given in patent US12060408B2, “Screening assays, modulators and modulation of activation of Receptor for Advanced Glycation End-products (RAGE)” (Monash University, priority 2017, dated 2024).

Experiments:
AT1 receptor = AT1 receptor (Homo sapiens, UniProt P30556); assay: Receptor-HIT BRET, β-arrestin2/Venus with RAGE/Rluc8 and AT1 receptor; format: cell-based
Protocol: The BRET ratio was calculated by subtracting the ratio of ‘acceptor emission’ over ‘donor emission’ for a cell sample expressing Rluc8-tagged protein alone from the same ratio for a cell sample expressing both Rluc8 and Venus-tagged proteins. Alternatively, the ligand-induced BRET signal was calculated by subtracting the ratio of ‘acceptor emission’ over ‘donor emission’ for a vehicle-treated cell sample from the same ratio for a second aliquot of the same cells treated with agonist.
The fluorescence/luminescence ratio was generated by dividing the fluorescence values in arbitrary units (obtained with the EnVision) by the luminescence values also in arbitrary units (obtained as part of the BRET assay).

isolated aortae = assay: Ex vivo exposure of isolated aortae to Ang II, expression of pro-atherogenic mediators by RT-PCR; parameters: species or system mouse; conditions: 1 μM
Protocol: (§1) At the end of each study period, thoracic and abdominal aortae were placed in TRIZOL, snap frozen and stored at −80° C. RNA extraction and cDNA synthesis was performed in aortic homogenates using the Trizol method. Gene expression of pro-atherogenic mediators including adhesion molecules, cytokines, inflammatory, oxidative stress and macrophage markers, were estimated in aortic homogenates by quantitative real-time RT-PCR, performed using the TaqMan system based on real-time detection of accumulated fluorescence (ABI Prism 7700, Perkin-Elmer Inc, PE Biosystems, Foster City, CA, USA). Gene expression was normalized to 18S mRNA and reported as fold change compared to the level of expression in untreated control mice/cells, which were given an arbitrary value of 1.
Ex Vivo Studies in Isolated Aortae
Aortae were isolated from apoE KO and AGER/apoE DKO mice, divided and placed in Krebs buffer and maintained at physiological pH by infusing carbogen gas (95% O2; 5% CO2) through the buffer at 37° C. Vessels (n=6/group) were then treated with Ang II (1 μM) for 4 hours. After which time, whole blood labelled with DilC18 (1:1000) was then perfused through the aorta at 0.12 ml/min. Images and videos of vessel wall-cell interactions were observed using a fluorescence microscope (Zeiss Discovery.V20), coupled to a digital camera ([…] ORCA-ER) and analysed with AxioVison software.

apoE KO mice [1] = assay: Aortic expression of pro-inflammatory mediators by quantitative real-time PCR (aortic homogenates); format: in vivo, mouse; conditions: four-week infusion 1 μg/kg/min
Protocol: Aortic Expression of Pro-Inflammatory Mediators by Quantitative Real-Time PCR
as §1

apoE KO mice [2] = assay: Induction of oxidative stress (plasma 8-OHdG ELISA, aortic NOX-1/NOX-4 RT-PCR); format: in vivo, mouse; conditions: four-week infusion 1 μg/kg/min
Excerpt: Induction of Oxidative Stress
The induction of oxidative stress in each animal model was estimated by the measurement of plasma levels of 8-hydroxydeoxyguanosine using the OxiSelect Oxidative DNA Damage ELISA Kit (8-OHdG Quantitation; Cell Biolabs, Inc), and performed as per manufacturer's instructions. In addition, gene expression of the superoxide-producing NADPH oxidase subunits, NOX-1 and NOX-4 were quantitated in the aortae of mice using real time RT-PCR, as detailed above.

PMAEC = assay: Static adhesion assay (labelled THP-1 cells on PMAEC monolayer); format: cell-based, mouse; conditions: PMAEC from C57bl6 mice, 1 μM
Protocol: Functional responsiveness to Ang II was determined in PMAEC using a static adhesion assay, in which PMAEC were seeded at 50,000 cells per well into six-well plates and allowed to grow to 70% confluency before treatment with 1 μM Ang II for 24 hours. Human THP-1 cells, which mimic monocytes and macrophages in the vasculature, were stained using CellVue Burgundy Fluorescent Cell labelling Kit (LICOR) as per manufacturer's instructions before seeding them onto the endothelial cell monolayers at 3×10^5 viable cells per well and incubated for 20 minutes at 37° C. The cells that had not adhered to the endothelial cell monolayer were removed and the wells washed with PBS before fixing with 4% formalin in PBS for 30 min. The adhesion of cells was then quantitated using the ODYSSEY infra-red imager (Licor). Additionally adhered cells were photographed at ×20 using light microscopy (Olympus CKX41).

IQGAP-1 = target: T1, IQGAP-1 (Cricetulus griseus, UniProt A0A8C2MPD4); assay: Pull-down on column coated with S391A-RAGE362-404, proteomic analysis; format: binding; conditions: lysate of CHO cells stably transfected with Hs-AT1R; NiNTA column; FIG. 11C
T1 construct: 5×10^7 CHO cells stably transfected with Hs-AT1R were lysed using RIPA buffer; endogenous in cells; host or cells: lysate of CHO cells stably transfected with Hs-AT1R
T1 sequence (A0A8C2MPD4 1-1657): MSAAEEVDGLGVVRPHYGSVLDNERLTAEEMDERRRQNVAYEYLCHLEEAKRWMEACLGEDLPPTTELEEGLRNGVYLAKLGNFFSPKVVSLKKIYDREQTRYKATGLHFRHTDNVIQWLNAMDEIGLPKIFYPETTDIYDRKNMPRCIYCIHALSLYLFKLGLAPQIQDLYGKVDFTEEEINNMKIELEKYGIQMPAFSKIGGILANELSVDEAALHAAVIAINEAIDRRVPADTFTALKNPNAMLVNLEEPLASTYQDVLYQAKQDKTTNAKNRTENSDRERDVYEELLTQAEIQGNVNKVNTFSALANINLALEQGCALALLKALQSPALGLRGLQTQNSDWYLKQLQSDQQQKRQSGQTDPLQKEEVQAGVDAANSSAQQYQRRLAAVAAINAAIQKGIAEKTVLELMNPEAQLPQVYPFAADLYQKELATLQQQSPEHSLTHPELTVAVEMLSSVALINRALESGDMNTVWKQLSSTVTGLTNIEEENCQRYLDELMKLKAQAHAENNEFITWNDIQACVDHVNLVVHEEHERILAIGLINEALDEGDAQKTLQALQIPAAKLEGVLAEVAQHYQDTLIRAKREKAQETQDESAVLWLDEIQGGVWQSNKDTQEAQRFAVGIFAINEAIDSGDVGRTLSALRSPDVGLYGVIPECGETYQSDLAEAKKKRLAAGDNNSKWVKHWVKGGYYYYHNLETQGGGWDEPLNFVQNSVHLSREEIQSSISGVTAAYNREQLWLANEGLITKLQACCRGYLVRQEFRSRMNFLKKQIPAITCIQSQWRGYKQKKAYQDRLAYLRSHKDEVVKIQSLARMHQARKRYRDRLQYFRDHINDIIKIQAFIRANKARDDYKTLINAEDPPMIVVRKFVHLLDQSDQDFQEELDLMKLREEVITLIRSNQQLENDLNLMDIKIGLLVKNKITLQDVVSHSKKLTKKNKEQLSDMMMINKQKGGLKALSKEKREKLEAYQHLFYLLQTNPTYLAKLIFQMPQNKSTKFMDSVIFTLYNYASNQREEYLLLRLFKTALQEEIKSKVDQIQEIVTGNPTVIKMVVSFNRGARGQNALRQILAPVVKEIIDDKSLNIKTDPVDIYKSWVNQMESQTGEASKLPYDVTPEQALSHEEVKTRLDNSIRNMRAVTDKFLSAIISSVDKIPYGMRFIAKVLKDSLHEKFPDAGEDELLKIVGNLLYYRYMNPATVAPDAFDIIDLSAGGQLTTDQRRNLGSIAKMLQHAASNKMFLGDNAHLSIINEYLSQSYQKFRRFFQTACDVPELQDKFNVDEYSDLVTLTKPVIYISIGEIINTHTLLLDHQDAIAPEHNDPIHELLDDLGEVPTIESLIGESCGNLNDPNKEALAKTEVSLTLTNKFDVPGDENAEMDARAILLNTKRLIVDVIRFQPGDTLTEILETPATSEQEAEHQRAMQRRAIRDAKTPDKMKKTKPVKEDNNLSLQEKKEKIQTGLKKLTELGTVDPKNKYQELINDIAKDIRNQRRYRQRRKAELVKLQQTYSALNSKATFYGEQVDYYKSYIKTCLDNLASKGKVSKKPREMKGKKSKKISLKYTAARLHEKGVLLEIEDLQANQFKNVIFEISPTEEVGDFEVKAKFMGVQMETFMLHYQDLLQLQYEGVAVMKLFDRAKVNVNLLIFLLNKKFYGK
Protocol: The TAT-Cherry-S391A-RAGE362-404 peptide and TAT-mCherry control peptide were bound to a gravity flow NiNTA column, and equilibrated using lysis buffer (50 mM Tris pH 7.5, 300 mM NaCl, 5 mM βB-mercaptoethanol, 10 mM imidazole. 5×10^7 CHO cells stably transfected with Hs-AT1R were lysed using RIPA buffer (1×PBS supplemented with 1% NP-40, 0.5% Na-deoxycholate with protease and phosphatase inhibitors), diluted to 50 ml in lysis buffer and passed over the Ni-NTA column twice by gravity flow. The 1 ml column was washed extensively (200 ml wash buffer-50 mM Tris pH 7.4, 300 mM NaCl, 5 mM β-mercaptoethanol, 20 mM imidazole). After washing, 2 ml of elution buffer (50 mM Tris pH 7.4, 300 mM NaCl, 5 mM β-mercaptoethanol, 250 mM imidazole) was applied to the column, and used to elute proteins that had bound to either the A peptide or TAT-mCherry control peptide. 1 ml of sample was delivered for proteomic analysis by Mass Spectroscopy. Venny 2.1.0 was used to generate lists of the proteins differentially bound to the two proteins.

Sequence of AT1 receptor (P30556 whole entry): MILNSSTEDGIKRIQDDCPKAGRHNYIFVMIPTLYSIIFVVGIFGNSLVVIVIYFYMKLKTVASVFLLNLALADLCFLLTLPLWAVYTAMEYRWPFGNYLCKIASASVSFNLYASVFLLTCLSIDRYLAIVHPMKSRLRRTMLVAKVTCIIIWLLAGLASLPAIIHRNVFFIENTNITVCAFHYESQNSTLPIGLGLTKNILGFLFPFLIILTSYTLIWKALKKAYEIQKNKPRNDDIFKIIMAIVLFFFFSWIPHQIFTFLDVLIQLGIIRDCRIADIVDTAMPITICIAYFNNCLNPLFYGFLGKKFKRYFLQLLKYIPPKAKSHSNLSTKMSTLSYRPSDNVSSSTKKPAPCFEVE
Sequence of AT1 receptor (P32121 whole entry partner): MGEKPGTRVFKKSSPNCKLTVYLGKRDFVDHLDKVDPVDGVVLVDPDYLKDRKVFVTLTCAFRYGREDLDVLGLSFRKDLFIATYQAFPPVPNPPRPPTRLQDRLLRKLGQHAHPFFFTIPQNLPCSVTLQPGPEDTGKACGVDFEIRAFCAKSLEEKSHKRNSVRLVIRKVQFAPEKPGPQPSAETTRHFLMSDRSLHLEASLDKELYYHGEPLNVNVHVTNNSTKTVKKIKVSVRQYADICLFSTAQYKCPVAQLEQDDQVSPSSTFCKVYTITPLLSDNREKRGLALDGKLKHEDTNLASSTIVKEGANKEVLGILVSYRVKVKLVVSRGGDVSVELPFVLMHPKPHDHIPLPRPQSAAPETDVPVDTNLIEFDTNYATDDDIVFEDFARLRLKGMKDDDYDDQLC

Substance | recruitment of βarrestin2/Venus to AT1/Rluc8 (AT1 receptor; control) | recruitment of β-arrestin2/Venus proximal to RAGE/Rluc8 (AT1 receptor; in the presence of AT1 receptor) | induction of atherogenic mediators (isolated aortae; aortae from AGER/apoE DKO mice) | expression of pro-atherogenic mediators (isolated aortae; isolated aortae from apoE KO mice) | aortic expression of pro-atherogenic mediators (apoE KO mice [1]; AGER/apoE DKO mice) | aortic expression of genes coding for pro-atherogenic mediators (apoE KO mice [1]; apoE KO mice) | oxidative stress (apoE KO mice [2]; AGER/apoE DKO mice) | markers of oxidative stress (apoE KO mice [2]; apoE KO mice) | adhesion of labelled THP-1 cells to PMAEC monolayer (PMAEC) | association with IQGAP-1 (pull-down) (IQGAP-1)
angiotensin II (DRVYIHPF) [Ang II, cognate ligand of AT1R] | recruitment | recruitment | prevents | increases | preventing | increases | preventing | increases | increased adhesion | –
L362WQRRQRRGEERKAPENQEEEEERAELNQAEEPEAGESSTGGP404 (LWQRRQRRGEERKAPENQEEEEERAELNQAEEPEAGESSTGGP; listed as Homo sapiens) [S391A-RAGE362-404, S391A mutant RAGE cytosolic tail; non-functional substitute for RAGE] | – | – | – | – | – | – | – | – | – | preferentially associates with IQGAP-1
